Measurements: PubChem BioAssay AID434951 (Broad Institute, 2010)
Activity calls are given as the source filed them.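 The calls were made as follows: active = a fitted half-maximal concentration EC50 for the rise in nuclear signal no higher than ten times the top dose tested; inconclusive = flat fit with activity between 30% and 70%, or unusable fit; inactive = EC50 beyond ten times the top dose.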

Molecular target: Hypoxia-inducible factor 1-alpha (Homo sapiens) (UniProt Q16665)
Test: HIF pathway activation, GFP-HIF1alpha translocation – imaging, fluorescence, U2OS GFP-HIF1alpha, confirmation (AID 434951)
Details: U2OS GFP-HIF1alpha nuclear intensity, high-content imaging

Hypoxia-inducible factor 1-alpha (Homo sapiens), sequence (Q16665 whole entry, looked up): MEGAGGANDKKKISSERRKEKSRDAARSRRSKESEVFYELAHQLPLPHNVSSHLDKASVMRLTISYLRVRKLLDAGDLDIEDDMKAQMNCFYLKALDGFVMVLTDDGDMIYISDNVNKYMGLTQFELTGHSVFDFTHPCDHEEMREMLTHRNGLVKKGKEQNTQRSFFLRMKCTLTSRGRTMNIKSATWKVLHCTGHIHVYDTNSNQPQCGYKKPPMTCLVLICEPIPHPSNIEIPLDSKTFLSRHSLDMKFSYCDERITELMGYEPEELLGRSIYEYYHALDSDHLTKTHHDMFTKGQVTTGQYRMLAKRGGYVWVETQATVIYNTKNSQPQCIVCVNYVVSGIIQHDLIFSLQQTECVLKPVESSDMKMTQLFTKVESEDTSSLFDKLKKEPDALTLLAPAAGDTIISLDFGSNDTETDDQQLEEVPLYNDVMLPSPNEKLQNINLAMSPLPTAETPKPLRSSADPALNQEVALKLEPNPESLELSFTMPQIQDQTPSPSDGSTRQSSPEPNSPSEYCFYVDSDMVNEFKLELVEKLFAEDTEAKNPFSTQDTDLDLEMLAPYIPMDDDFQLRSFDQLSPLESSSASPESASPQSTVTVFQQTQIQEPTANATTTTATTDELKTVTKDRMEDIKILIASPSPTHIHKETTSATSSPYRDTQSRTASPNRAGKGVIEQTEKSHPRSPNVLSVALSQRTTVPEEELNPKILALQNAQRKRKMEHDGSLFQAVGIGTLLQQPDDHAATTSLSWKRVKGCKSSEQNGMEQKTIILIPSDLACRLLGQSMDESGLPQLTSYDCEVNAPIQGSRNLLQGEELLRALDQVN

Row | Compound | EC50
1 | CCCCCCn1nc(C(=O)Nc2nc3c(s2)CCCC3)c2ccccc2c1=O | > 35 µM (inactive)
2 | Cc1ccc(C)c(SCC(=O)OCC(=O)N2CC(C)OC(C)C2)c1 (centres undefined) | > 35 µM (inactive)
3 | Cc1ccc(-n2nc3c(=O)n(CC(=O)NCc4ccccc4)nc(C)c3c2C)cc1 | > 35 µM (inactive)
4 | Cc1cccc(NC(=O)C2CC(=O)NC(Nc3nc4ccccc4s3)=N2)c1 (centres undefined) | > 35 µM (inactive)
5 | CS(=O)(=O)n1nc(-c2ccccc2)nc1NCc1ccco1 | > 35 µM (inactive)
6 | O=C(NS(=O)(=O)c1ccc2c(c1)OCCO2)c1ccccc1 | > 35 µM (inactive)
7 | Cc1ccc(O)c(NC(=O)c2ccc3c(c2)C(=O)N(Cc2ccco2)C3=O)c1 | > 35 µM (inactive)
8 | COc1ccc(CN2CCNC(=O)C2CC(=O)NC2CCCC2)c(OC)c1 (centres undefined) | > 35 µM (inactive)
9 | COC(=O)Nc1ccc(=O)n(Cc2c(Cl)cccc2Cl)c1 | > 35 µM (inactive)
10 | O=[N+]([O-])c1ccc(N=Cc2ccc(Br)c([N+](=O)[O-])c2)cc1 | 15.4 µM
11 | O=C(CSc1nnc(-c2ccccc2Cl)o1)N1CCOCC1 | > 35 µM (inactive)
12 | CCCCNc1nc(N)nc(-c2cc(Cl)ccc2O)n1 | > 35 µM (inactive)
13 | Cc1nnc(N/N=C/c2ccccn2)[nH]c1=O | 5.75 µM
14 | O=C1OCc2cc(NC(=O)C34CC5CC(CC(C5)C3)C4)ccc21 | > 35 µM (inactive)
15 | CCOC(=O)N1CCC(Nc2c(-c3ccccc3)c(=O)c2=O)CC1 | > 35 µM (inactive)
16 | Cc1cc(/C=N/N2CCN(C)CC2)c(C)n1-c1ccc(Cl)cc1 | > 35 µM (inactive)
17 | O=C(CCc1ccccc1)NC(c1cccs1)c1cc(Cl)c2cccnc2c1O (centres undefined) | 35.2 µM
18 | O=C(CSCC(=O)Nc1ccccc1)N/N=C/c1c(O)ccc2ccccc12 | 4.45 µM
19 | Cc1occc1C(=O)N/N=C/c1c(O)ccc2ccccc12 | 11.7 µM
20 | CCC(=O)NC(c1ccc(OC)cc1)c1cc(Cl)c2cccnc2c1O (centres undefined) | 11.8 µM
21 | O=C(N/N=C(\c1ccccc1)c1ccccn1)c1cccc([N+](=O)[O-])c1 | 0.629 µM
22 | CCOc1ccc2c(C)c(Cl)c(=O)oc2c1 | > 35 µM (inactive)
23 | CC(=O)c1ccc(C(=O)N2CCCC(Nc3ccc(C(C)C)cc3)C2)s1 (centres undefined) | > 35 µM (inactive)
24 | COc1cccc(/C=N/NC(=O)c2c(C)nc3ccc(Br)cn23)c1O | 5.52 µM
25 | CC(C)C(=O)NC(c1cccc([N+](=O)[O-])c1)c1ccc2cccnc2c1O (centres undefined) | 2.3 µM
26 | CCN(CC)c1ccc(/C=N/Nc2nc(C)cc(=O)[nH]2)c(O)c1 | 34.4 µM

Row | Compound | EC50
27 | Cc1ccc(CNC(=O)NC2CCCCC2)cc1 | > 35 µM (inactive)
28 | COc1ccc2[nH]c(C(=O)N/N=C/c3ccc(O)cc3O)cc2c1 | 8.67 µM
29 | c1ccc(CSC2=NNC(c3ccccn3)S2)cc1 (centres undefined) | 18.6 µM
30 | COc1ccccc1NC(=O)C1CCN(C(=O)c2ccc(C(C)(C)C)cc2)CC1 | > 35 µM (inactive)
31 | COc1cccc(C(=O)C2CCCN(Cc3ccc4nsnc4c3)C2)c1 (centres undefined) | > 35 µM (inactive)
32 | COc1ccc(C(=O)CSc2nncn2C)cc1 | > 35 µM (inactive)
33 | CCCc1[nH]nc2c1C(c1ccoc1)C(C#N)=C(N)O2 (centres undefined) | > 35 µM (inactive)
34 | CCN(CCCCCN(C)C)Cc1cc2ccccc2o1 | > 35 µM (inactive)
35 | O=C(CSc1nnc(-c2ccco2)n1Cc1ccco1)NCc1ccccc1 | > 35 µM (inactive)
36 | CN(C(=O)COC(=O)c1ccc(F)c(S(=O)(=O)N2CCOCC2)c1)C1CCS(=O)(=O)C1 (centres undefined) | > 35 µM (inactive)
37 | Cn1ncc(Cl)c1C(=O)Nc1nc2ccc(Cl)cc2s1 | > 35 µM (inactive)
38 | COc1nccc(C(F)(F)F)c1C(=O)NC(=O)Nc1ccccc1 | > 35 µM (inactive)
39 | COc1ccc(NC(=O)C(=O)NNC(=O)c2ccc(Cl)cc2Cl)cc1 | > 35 µM (inactive)
40 | Cc1ccc(C2(C)NC(=O)N(CC(=O)Nc3ccccc3N3CCCC3)C2=O)cc1 (centres undefined) | > 35 µM (inactive)
41 | Cc1cc(NC(=O)CSc2nc3c(c(=O)n2-c2ccc(Cl)cc2)SCC3)no1 | > 35 µM (inactive)
42 | CCCn1c2ccccc2c2cnn(CC(=O)NC3CCCC(C)C3C)c(=O)c21 (centres undefined) | 7.26 µM
43 | Cc1ccc(NC(=O)CSc2ncc3ccccn23)cc1 | > 35 µM (inactive)
44 | CC(C)(C)c1csc(NNC(=O)c2ccc(Br)cc2)n1 | 29 µM
45 | Cc1ccc(C)c(-c2cc(C(=O)Nc3cccc(C(=O)O)c3)c3ccccc3n2)c1 | > 35 µM (inactive)
46 | O=C(CCCc1ccccc1)Nc1ccccn1 | > 35 µM (inactive)
47 | Cc1cccc(OCCn2cccc2/C=C2/C(=O)NC(=O)N(Cc3ccco3)C2=O)c1 | > 35 µM (inactive)
48 | O=C(CCc1ccccc1)Nc1ccnn1C1CCN(C/C=C/c2ccccc2)CC1 | > 35 µM (inactive)
49 | Cc1cc(N/C=C/C(=O)c2ccc(Br)cc2)no1 | > 35 µM (inactive)
50 | O=C(NC(CSCc1ccccc1)C(=O)N/N=C/c1ccc(O)cc1O)c1ccc([N+](=O)[O-])cc1 (centres undefined) | 2.51 µM
51 | COc1cnc(-c2ccccn2)nc1N(C)c1ccccc1 | 9.27 µM
52 | CC(=O)Nc1c([N+](=O)[O-])cc(C)c(Cl)c1[N+](=O)[O-] | > 35 µM (inactive)

Row | Compound | EC50
53 | O=C(Nc1nc2ccc([N+](=O)[O-])cc2s1)c1c(F)cccc1F | > 35 µM (inactive)
54 | Nc1nonc1-n1nnc(C(=O)N/N=C/c2cc(Br)ccc2O)c1CSC1=NCCS1 | 29.6 µM
55 | O=C(N/N=C(\Cc1ncc[nH]1)c1ccccc1)c1ccccc1 | > 35 µM (inactive)
56 | O=C(N/N=C(\c1ccccc1)c1cccnc1)c1cccc(F)c1 | 2.62 µM
57 | CC(=O)NC(c1ccc(Cl)cc1Cl)c1ccc2cccnc2c1O (centres undefined) | 12.8 µM
58 | O=C(c1ccc(OC2CCN(CCc3ccccc3)CC2)cc1)N1CCCC(CCCO)C1 (centres undefined) | > 35 µM (inactive)
59 | Cc1ccc(S(=O)(=O)N2CCN(c3ccccn3)CC2)cc1 | > 35 µM (inactive)
60 | CCCn1c(SCC(=O)Nc2ccccc2CC)nnc1C(C)C | > 35 µM (inactive)
61 | COc1ccc(C(=O)N/N=C(\c2ccccc2)c2ccccn2)cc1 | 11.5 µM
62 | CC(C)(C)c1cc(C(=O)N2CCN(c3ncccn3)CC2)ccn1 | > 35 µM (inactive)
63 | O=S(=O)(CCSc1nc2ccccc2s1)c1nc2ccccc2s1 | > 35 µM (inactive)
64 | O=C(c1cccc(C(F)(F)F)c1)C1CCCN(C(=O)Cn2cncn2)C1 (centres undefined) | > 35 µM (inactive)
65 | CCN(CC)CCNc1cc(C)nc2c1C(=O)C(=O)C=C2N1CCCCC1 | 3.63 µM
66 | CCN(CC)CCOc1ccc2c(c1)C(=NO)c1cc(OCCN(CC)CC)ccc1-2 | > 35 µM (inactive)
67 | c1ccc2c(NCCc3c[nH]c4ccccc34)c3ccccc3nc2c1 | > 35 µM (inactive)
68 | COc1ccc(C2CC(c3cccs3)=NN2C(=O)CSc2nc(=O)n3cc(C)ccc3n2)cc1 (centres undefined) | > 35 µM (inactive)
69 | CC(OC(=O)COc1ccc(Nc2ccccc2)cc1)C(=O)N(C)c1ccccc1 (centres undefined) | > 35 µM (inactive)
70 | CN(C)c1ccc(N=Nc2ccc(S(N)(=O)=O)cc2)cc1 | > 35 µM (inactive)
71 | N#Cc1ccccc1S(=O)(=O)N1CCN(c2cnccn2)CC1 | > 35 µM (inactive)
72 | CCCC(=O)NC(c1ccc(N(C)C)cc1)c1ccc2cccnc2c1O (centres undefined) | 6.62 µM
73 | CC(C)CC1NC(=O)N(Cc2cc(=O)n3ccsc3n2)C1=O (centres undefined) | > 35 µM (inactive)
74 | C(=N\Nc1nc2ccccc2[nH]1)/c1cccc2nccnc12 | 15.8 µM
75 | O=C(CSc1nc2ccccc2c(=O)[nH]1)Nc1ccc(Br)cc1 | > 35 µM (inactive)
76 | COc1cccc(C(NC(C)=O)c2ccc3cccnc3c2O)c1 (centres undefined) | 5.94 µM
77 | O=C1CCCN2N=C(SCC(=O)Nc3ccc(Br)cc3)SC2=N1 | 26.7 µM
78 | COCc1nnc(NC(=O)c2cc(Cl)ccc2OC)s1 | > 35 µM (inactive)

Row | Compound | EC50
79 | COc1ccc(CCNC(=O)c2nnn(CC(=O)Nc3c(C)cc(C)cc3C)c2N)cc1OC | > 35 µM (inactive)
80 | c1ccc(-c2nnc3sc(-c4cc5ccccc5o4)nn23)cc1 | > 35 µM (inactive)
81 | O=C(NCc1cccs1)C1CC(=O)N(C2CCCC2)C1 (centres undefined) | > 35 µM (inactive)
82 | COc1ccc(CCNC(=O)CSc2nc(-c3ccc(OC)c(OC)c3)ccc2C#N)cc1 | > 35 µM (inactive)
83 | CN(C)/N=C/C=C1\CCC/C(=C/c2cccs2)C1=O | > 35 µM (inactive)
84 | Cc1noc(C)c1COC(=O)C1CC(O)CN1S(=O)(=O)c1ccc(Cl)cc1 (centres undefined) | > 35 µM (inactive)
85 | CCCC(=O)NC(c1ccccc1)c1ccc2cccnc2c1O (centres undefined) | 4.71 µM
86 | Cc1cccc2sc(NNC(=O)c3ccc(S(=O)(=O)N4CCc5ccccc5C4)cc3)nc12 | 11.2 µM
87 | Cn1nc(C(=O)NCCCN2CCCCC2)c2c1-c1ccccc1S(=O)(=O)C2 | > 35 µM (inactive)
88 | O=C(/C=C/c1ccco1)Oc1cc(Br)cc(/C=N/NC(=O)c2ccccc2O)c1 | 5.43 µM
89 | CCCCOC(=O)c1ccc(NC(=O)C(=O)NCc2cccnc2)cc1 | > 35 µM (inactive)
90 | Cc1ccc(S(=O)(=O)N2CC(C)N(C(=O)N3CCOCC3)C2C)cc1 (centres undefined) | > 35 µM (inactive)
91 | COc1cccc2sc(N3CCN(C(=O)c4ccc([N+](=O)[O-])o4)CC3)nc12 | > 35 µM (inactive)
92 | COc1ccc(NC(=O)Nc2ccc(CC(=O)O)cc2)cc1 | > 35 µM (inactive)
93 | CC(C)[C@H](NC(=O)c1ccccc1Cl)C(=O)Nc1nc(-c2ccccn2)cs1 | 6.64 µM
94 | O=C(Cn1c(SCC(=O)N2CCCc3ccccc32)nc2ccccc21)N1CCCC1 | > 35 µM (inactive)
95 | COc1cc2ccccc2cc1C(=O)Nc1ccc(C)cc1 | > 35 µM (inactive)
96 | Cc1cc(Br)cc(/C=N/NC(=O)c2ccc3c(c2)OCO3)c1O | 6.26 µM
97 | CC(=O)N1CCC(=NNc2nc3ccccc3[nH]2)CC1 | > 35 µM (inactive)
98 | CCCOc1ccc(/C=N/NC(=O)CSc2ccccn2)cc1OC | > 35 µM (inactive)
99 | O=C(/C=C/c1cn(-c2ccccc2)nc1-c1ccccc1)Nc1ccc(C(=O)O)cc1 | > 35 µM (inactive)
100 | O=C(NCc1nc2ccccc2[nH]1)c1c(F)c(F)c(F)c(F)c1F | > 35 µM (inactive)
101 | CCCCC(=O)NC(c1ccccc1Cl)c1ccc2cccnc2c1O (centres undefined) | 3.16 µM
102 | COc1cccc(/C=N/NC(=O)c2[nH]nc3c2CCc2ccccc2-3)c1O | 1.94 µM
103 | CCCC(=O)NC(c1ccc(Cl)cc1Cl)c1ccc2cccnc2c1O (centres undefined) | 2.35 µM
104 | Cc1ccc(C(CC(=O)O)C2CCOC(C)(C)C2)cc1 (centres undefined) | > 35 µM (inactive)
